In ChEMBL document CHEMBL1144417, “Conformation mining: an algorithm for finding biologically relevant conformations” (J Med Chem, 2005) one finds IC50 and Ki data, which are given here for 5 compounds.

Structures are written as SMILES.

In test [1] the target is Cyclin-dependent kinase 2 (Homo sapiens, UniProt P24941). Put plainly: Inhibition of Cyclin-dependent kinase 2.
A short description of test [2]: Inhibitory activity against thrombin.

As usually defined, the IC50 is the point on the concentration scale where inhibition reaches its midpoint. The low end stands for higher potency, the high end for lower potency. As for `O=C1NC2C=CC=CC2/C1=C/Nc1ccc(S(=O)(=O)Nc2nccs2)cc1` (stereo not given), the IC50 in test [1] worked out at 1000 nM. That is a single-digit micromolar value.
Usually Ki stands for a measure of affinity in units of concentration, obtained from inhibition or displacement. Turning to `Cc1cc(NS(=O)(=O)c2ccccc2)cc(OCCNc2ccncc2)c1`, the Ki in test [2] was 23 nM.
In test [2], `N=C(N)NCCC[C@H](NC(=O)[C@@H]1CCN2CC[C@@](N)(Cc3ccccc3)C(=O)N12)C(=O)c1nccs1` gave a Ki of 2 nM. Compared with the last compound, the Ki is about 12-fold lower.
With `N=C(N)c1ccc(C[C@@H](NC(=O)CNS(=O)(=O)c2ccc3ccccc3c2)C(=O)N2CCCCC2)cc1`, the affinity in test [2], expressed as Ki, was 7 nM.
In the case of `C[C@@H]1CCN(C(=O)[C@H](CCCNC(=N)N)NS(=O)(=O)c2cccc3c2NC[C@H](C)C3)[C@@H](C(=O)O)C1` [ARGATROBAN], the Ki in test [2] is 1 nM.
